Laboratory results: patent publication US20200079766A1, “MONOCYCLIC OGA INHIBITOR COMPOUNDS” (Janssen Pharmaceutica NV, priority 2016, published 2020)

Key:
[1] = target: T1, recombinant human Meningioma Expressed Antigen 5 (MGEA5), also referred to as O-GlcNAcase (OGA) (Homo sapiens, UniProt O60502); assay: OGA biochemical assay: inhibition of FM-GlcNAc hydrolysis, fluorescence; protocol A (10 nM OGA, 1 h) or protocol B (2 nM OGA, 6 h); conditions: Enzymatic protocol B (2 nM OGA, 6 h); for IC50: read-out: Enzymatic hOGA, pIC50 (converted)
T1 construct: Full length OGA enzyme was purchased at OriGene (cat # TP322411); purchased OriGene TP322411
T1 sequence (O60502 1-916): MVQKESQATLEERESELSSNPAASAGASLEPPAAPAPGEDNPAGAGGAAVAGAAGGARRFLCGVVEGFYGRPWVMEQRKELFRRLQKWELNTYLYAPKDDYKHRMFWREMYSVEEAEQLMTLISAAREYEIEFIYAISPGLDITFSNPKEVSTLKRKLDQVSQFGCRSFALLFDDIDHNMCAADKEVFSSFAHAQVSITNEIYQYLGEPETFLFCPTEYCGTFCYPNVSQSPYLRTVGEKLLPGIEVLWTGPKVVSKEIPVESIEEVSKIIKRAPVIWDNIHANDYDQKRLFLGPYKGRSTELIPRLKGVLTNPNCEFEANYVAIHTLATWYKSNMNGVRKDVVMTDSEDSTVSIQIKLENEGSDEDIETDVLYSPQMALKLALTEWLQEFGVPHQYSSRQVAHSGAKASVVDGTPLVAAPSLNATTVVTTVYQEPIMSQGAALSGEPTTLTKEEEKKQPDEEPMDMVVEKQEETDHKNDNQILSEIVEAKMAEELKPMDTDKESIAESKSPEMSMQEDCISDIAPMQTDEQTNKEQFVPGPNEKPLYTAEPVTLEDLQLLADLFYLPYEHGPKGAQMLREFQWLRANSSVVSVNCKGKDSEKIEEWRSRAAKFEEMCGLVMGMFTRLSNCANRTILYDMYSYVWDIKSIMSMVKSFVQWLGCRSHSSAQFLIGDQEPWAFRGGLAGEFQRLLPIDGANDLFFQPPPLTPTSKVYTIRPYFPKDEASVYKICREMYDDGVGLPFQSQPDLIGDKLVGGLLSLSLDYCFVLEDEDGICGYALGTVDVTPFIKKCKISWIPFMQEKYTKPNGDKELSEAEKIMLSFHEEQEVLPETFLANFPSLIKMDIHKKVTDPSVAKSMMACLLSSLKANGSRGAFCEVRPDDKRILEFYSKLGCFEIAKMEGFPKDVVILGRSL
Description: The assay is based on the inhibition of the hydrolysis of fluorescein mono-3-D-N-Acetyl-Glucosamine (FM-GlcNAc) (Mariappa et al. 2015, Biochem J 470:255) by the recombinant human Meningioma Expressed Antigen 5 (MGEA5), also referred to as O-GlcNAcase (OGA). The hydrolysis FM-GlcNAc (Marker Gene technologies, cat # M1485) results in the formation of ß-D-N-glucosamineacetate and fluorescein. The fluorescence of the latter can be measured at excitation wavelength 485 nm and emission wavelength 538 nm. An increase in enzyme activity results in an increase in fluorescence signal. Full length OGA enzyme was purchased at OriGene (cat # TP322411). The enzyme was stored in 25 mM Tris.HCl, pH 7.3, 100 mM glycine, 10% glycerol at −20° C. Thiamet G and GlcNAcStatin were tested as reference compounds (Yuzwa et al. 2008 Nature Chemical Biology 4:483; Yuzwa et al. 2012 Nature Chemical Biology 8:393). The assay was performed in 200 mM Citrate/phosphate buffer supplemented with 0.005% Tween-20. 35.6 g Na2HPO42H2O (Sigma, # C0759) were dissolved in 1 L water to obtain a 200 mM solution. 19.2 g citric acid (Merck, #1.06580) was dissolved in 1 L water to obtain a 100 mM solution. pH of the sodiumphosphate solution was adjusted with the citric acid solution to 7.2. The buffer to stop the reaction consists of a 500 mM Carbonate buffer, pH 11.0. 734 mg
FM-GlcNAc were dissolved in 5.48 mL DMSO to obtain a 250 mM solution and was stored at −20° C. OGA was used at a 10 nM (protocol A) or 2 nM (protocol B) concentration and FM-GlcNAc at a 100 uM final concentration. Dilutions were prepared in assay buffer.
50 nl of a compound dissolved in DMSO was dispensed on Black Proxiplate™ 384 Plus Assay plates (Perkin Elmer, #6008269) and 3 μl fl-OGA enzyme mix added subsequently. Plates were pre-incubated for 60 min at room temperature and then 2 μl FM-GlcNAc substrate mix added. […] Plates were briefly centrifuged for 1 min at 1000 rpm and incubate at room temperature for 1 h (10 nM OGA, protocol A) or 6 h (2 nM OGA, protocol B). To stop the reaction 5 μl STOP buffer were added and plates centrifuge again 1 min at 1000 rpm. Fluorescence was quantified in the Thermo Scientific Fluoroskan Ascent or the PerkinElmer EnVision with excitation wavelength 485 nm and emission wavelength 538 nm.
For analysis a best-fit curve is fitted by a minimum sum of squares method. From this an IC50 value and Hill coefficient was obtained. High control (no inhibitor) and low control (saturating concentrations of standard inhibitor) were used to define the minimum and maximum values.

[2] = test system: OGA in HEK293 cells inducible for P301L mutant human Tau (isoform 2N4R); assay: OGA cellular assay: immunocytochemical detection of O-GlcNAcylated proteins (CTD110.6 antibody) after 6 h incubation; type: cell-based; conditions: for Emax / EC50: Homo sapiens, HEK293, 6 h; for Emax / Cellular Emax (%): maximum = Thiamet G 200 uM; for EC50: read-out: Cellular hOGA, pEC50 (converted)
Method: HEK293 cells inducible for P301L mutant human Tau (isoform 2N4R) were established at Janssen. Thiamet-G was used for both plate validation (high control) and as reference compound (reference EC50 assay validation). OGA inhibition is evaluated through the immunocytochemical (ICC) detection of O-GlcNAcylated proteins by the use of a monoclonal antibody (CTD110.6; Cell Signaling, #9875) detecting O-GlcNAcylated residues as previoulsy described (Dorfmueller et al. 2010 Chemistry & biology, 17:1250). Inhibition of OGA will result in an increase of O-GlcNAcylated protein levels resulting in an increased signal in the experiment. Cell nuclei are stained with Hoechst to give a cell culture quality control and a rough estimate of immediate compounds toxicity, if any. ICC pictures are imaged with a Perkin Elmer Opera Phenix plate microscope and quantified with the provided software Perkin Elmer Harmony 4.1.
Cells were propagated in DMEM high Glucose (Sigma, # D5796) following standard procedures. 2 days before the cell assay cells are split, counted and seeded in Poly-D-Lysine (PDL) coated 96-wells (Greiner, #655946) plate at a cell density of 12,000 cells per cm^2 (4,000 cells per well) in 100 μl of Assay Medium (Low Glucose medium is used to reduce basal levels of GlcNAcylation) (Park et al. 2014 The Journal of biological chemistry 289:13519). At the day of compound test medium from assay plates was removed and replenished with 90 μl of fresh Assay Medium. 10 μl of compounds at a 10 fold final concentration were added to the wells. Plates were centrifuged shortly before incubation in the cell incubator for 6 hours. DMSO concentration was set to 0.2%. Medium is discarded by applying vacuum. For staining of cells medium was removed and cells washed once with 100 μl D-PBS (Sigma, # D8537). From next step onwards unless other stated assay volume was always 50 μl and incubation was performed without agitation and at room temperature. Cells were fixed in 50 μl of a 4% paraformaldehyde (PFA, Alpha aesar, #043368) PBS solution for 15 minutes at room temperature. […] Before analysis samples were washed 2 times manually for 5 minutes in ICC base buffer.
Imaging is performed using Perkin Elmer Phenix Opera using a water 20× objective and recording 9 fields per well. Intensity readout at 488 nm is used as a measure of O-GlcNAcylation level of total proteins in wells. To assess potential toxicity of compounds nuclei were counted using the Hoechst staining. IC50-values are calculated using parametric non-linear regression model fitting. As a maximum inhibition Thiamet G at a 200 uM concentration is present on each plate. In addition, a concentration response of Thiamet G is calculated on each plate.

Structure (SMILES)	Emax [1] [%]	IC50 [1] [nM]	Enzymatic Emax (%) [1] [%]	Enzymatic hOGA; pIC50 [1]	Emax [2] [%]	EC50 [2] [nM]	Cellular hOGA; pEC50 [2]	Cellular Emax (%) [2] [%]
Cc1cc(C[C@H]2CCN(C(C)c3ccc4sc(C)nc4c3)C2)cc(C)n1 (mixture of isomers) [compound 87]	101	58.9	–	–	28.6	> 1000	–	–
CC(=O)Nc1ncc(CN2CCC(Cc3cnc(C(N)=O)cn3)C2)s1 (stereo not shown) [compound 105]	102	19.5	–	–	93.3	100	–	–
Cc1cc(CC2CCCN(C(C)c3ccc4nccnc4c3)C2)cc(C)n1 (racemic) [compound 139]	101	10	–	–	75	170	–	–
CC(=O)Nc1ncc(CN2CCC(Cc3cnc(C#N)cn3)C2)s1 (stereo not shown) [compound 91]	–	–	102	8.21	–	–	7.28	102.1
CC(=O)Nc1ncc(CN2CCC(Cc3cnc(C)c(C)n3)C2)s1 (stereo not shown) [compound 86]	–	–	101.3	8.49	–	–	7.4	83.5
CC(=O)Nc1ncc(CN2CC[C@H](Cc3ccnc(C)c3C)C2)s1 [compound 72]	102	7.94	–	–	109	32.4	–	–
CC(=O)Nc1ncc([C@@H](C)N2CCC[C@H](COc3cc(C)nc(C)c3)C2)s1 (single isomer, unassigned) [compound 136]	100	95.5	–	–	70.6	479	–	–
CC(=O)Nc1ncc(CN2CC[C@@H](Cc3ncc(C)cc3C(F)(F)F)C2)s1 [compound 35]	101	12.6	–	–	91.9	77.6	–	–
CC(=O)Nc1ncc(CN2CC[C@H](Cc3ccc(C)nc3C#N)C2)s1 [compound 84]	–	–	102.6	8.30	–	–	7.43	81.9
CC(=O)Nc1ncc(CN2CC[C@H](Cc3nc(C)ccc3C(F)(F)F)C2)s1 [compound 54]	100	28.8	–	–	75.9	234	–	–
CC(=O)Nc1ncc(CN2CC[C@H](Cc3ccncc3C)C2)s1 [compound 74]	–	–	101	8.01	–	–	7.34	115.8
CC(=O)Nc1ncc(CN2CCC(Cc3cnc(C(F)(F)F)cn3)C2)s1 (stereo not shown) [compound 64]	–	–	102.9	7.34	–	–	7.04	89.3
Cc1cc(C[C@H]2CCN(C(C)c3ccc4scnc4c3)C2)cc(C)n1 (mixture of isomers) [compound 88]	–	–	–	–	50.7	603	–	–
CC(=O)Nc1ncc(CN2C[C@@H](F)C[C@@H](COc3cc(C)nc(C)n3)C2)s1 (racemic) [compound 164]	94	617	–	–	–	–	–	–
Cc1cc(OCC2(F)CCCN(Cc3ccc4nccnc4c3)C2)cc(C)n1 (racemic) [compound 157]	69	2400	–	–	–	–	–	–
Cc1cc(N[C@H]2CCCN(Cc3ccc4nccnc4c3)C2)cc(C)n1 [compound 12]	92.9	676	–	–	–	–	–	–

Continued, in another order:

Emax [1] [%]	IC50 [1] [nM]	Enzymatic Emax (%) [1] [%]	Enzymatic hOGA; pIC50 [1]	Structure (SMILES)	Emax [2] [%]	EC50 [2] [nM]	Cellular hOGA; pEC50 [2]	Cellular Emax (%) [2] [%]
101	70.8	–	–	CC(=O)Nc1ncc(CN2CCC[C@H](Oc3cc(C)nc(C)c3)C2)s1 [compound 16]	115	63.1	–	–
99.6	8.51	–	–	CCOc1cc(C[C@H]2CCN(Cc3cnc(NC(C)=O)s3)C2)cc(C)n1 [compound 41]	90.7	20.9	–	–
124	4.68	–	–	CC(=O)Nc1ncc(CN2CCC(Cc3cc(C)nc(C)c3)C2)s1 (stereo not shown) [compound 30]	99.2	13.2	–	–
103	18.6	–	–	COc1nc(C)ccc1CC1CCN(Cc2cnc(NC(C)=O)s2)C1 (stereo not shown) [compound 109]	115	52.5	–	–
99.2	2.75	–	–	CC(=O)Nc1ncc(CN2CCC[C@H](Cc3cc(C)nc(F)c3)C2)s1 [compound 123]	90.5	9.77	–	–
102	3.24	–	–	CC(=O)Nc1ncc(CN2CCCC(Nc3cc(C)nc(C)c3)C2)s1 (stereo not shown) [compound 31]	90.2	20	–	–
99.9	72.4	–	–	CC(=O)Nc1ncc(S(=O)(=O)N2CCC[C@H](Cc3cc(C)nc(C)c3)C2)s1 [compound 33]	33.8	> 1000	–	–
103	15.1	–	–	CC(=O)Nc1ncc(CN2CCC[C@@H](COc3cc(C)nc(C)c3)C2)s1 [compound 154]	116	38	–	–
